Measurements published in patent US8017828B2, “Utilization of rare sugars in plant or microorganism” (Shikoku Research Institute Incorporated, priority 2004, dated 2011).

How the values were obtained:
Bletilla striata = test: Growth and bulb formation of Bletilla striata seedlings in tissue culture; format: in vivo; settings: for growth when the concentration added to the medium was increased: increased (high) concentration in medium
Experimental: Seedling plants of Bletilla striata obtained by sterile sowing were used in an experiment.
As for the Bletilla striata, by using ½ strength MS medium supplemented with D-psicose, D-allose, D-glucose or D-frucose at a concentration of from 0.005% to 0.05% (w/v), the seedling plants were aseptically transplanted on Feb. 27, 2003, and then, cultivation was carried out under the same conditions as those of the strawberry in Example 3. Then, on Jun. 30, 2003, a survey was carried out with regard to the growth conditions of aerial part and underground part, the number of buds, the ratio of bulb formation, the bulb size and the like.

[1] = system: Pythium ultimum IFO 32426 strain; test: Oospore formation of Pythium ultimum in sugar solution; format: cell-based; settings: 0.05% (w/v) sugar solution, 23° C., 4 days
Experimental: With regard to Pythium ultimum that causes damping-off of spinach and the like, an effect of a rare sugar on oospore formation was examined.
First, as the Pythium ultimum, IFO 32426 strain was used, and static culture thereof was carried out with 200 ml of V8 medium at 23° C. for 1 week. The resulting mycelial mat was well washed with sterile water and divided into 16 equal parts with forceps. This mycerial body was disentangled uniformly to form a small piece and immersed in 20 ml of a sugar solution at a concentration of 0.05% (w/v) and let stand at 23° C. for 4 days. […] Further, the same experiment was carried out using Pythium zingiberum IFO 30817 strain.

[2] = system: Brassica rapa var. amplexicaulis (variety: “Haru Ichiban”); test: Foliar spraying of sugar on Brassica rapa var. amplexicaulis; format: in vivo; settings: 0.5% solution sprayed; for Terminal bud weight: control (water) 3.0; for Stem diameter: control (water) 22.8; for Number of lateral buds: control (water) 32.3; for Plant length: control (water) 49.3; for Total weight of lateral buds: control (water) 235.3
Excerpt: Brassica rapa var. amplexicaulis is a vegetable in the Brassica family, and flower buds are harvested and used. As the same species of vegetables, broccoli, cauliflower and the like are exemplified, which are important horticultural crops. As for such a vegetable, development of flower buds has a large effect on the crop yield. Therefore, during the house cultivation of Brassica rapa var. amplexicaulis (variety: “Haru Ichiban”), foliar spraying of a sugar solution at a concentration of 0.5% (w/v) was carried out and effects on the growth and the development of flower buds were examined. The seeds of Brassica rapa var. amplexicaulis were sown in a 128-cell tray on Oct. 23, 2003 and raised for about 20 days. Then, the raised seedlings were transplanted for permanent planting with a planting distance of 40 cm on two rows with an inter row space of 50 cm in separate beds filled with soil for cultivation “Hana to Yasai no Tsuchi (garden soil for flowers and vegetables)” (Kurokawa Shubyo En) on Nov. 12, 2003. The cultivation was carried out by a simple fertigation system, and irrigation was carried out for 1 hour on a daily basis with a 2,000-fold dilution of Hyponex through an irrigation tube. The cultivation was carried out in a vinyl house without heating with side windows open. From Dec. 18, 2003, water or a 0.5% (w/v) sugar solution was sprayed onto the whole plant on a three times weekly basis. As for the types of sugars, D-glucose, D-fructose and D-psicose were used and five plants were cultivated for each test plot. On Feb. 23, 2004, three plants of medium size were harvested and a survey was carried out. The survey items were plant length, stem diameter, number of lateral buds, terminal bud weight, total weight of lateral buds and the like.

Phalaenopsis orchid = test: Growth of Phalaenopsis orchid flask seedlings in tissue culture; format: in vivo; settings: 0.005% in MS medium; for Underground part weight: non 2.9; for Aerial part weight: non 4.7; for Number of roots: non 12.5
Experimental: Flask seedlings of Phalaenopsis orchid and Cymbidium obtained by tissue culture were used in an experiment.
As for Phalaenopsis orchid, MS medium supplemented with D-psicose, D-glucose or D-fructose at a concentration of 0.005% (w/v) was used, and the flask seedlings were aseptically transplanted on Sep. 6, 2004. As for the number of seedlings, 4 seedlings were used for 1 test plot, and glass bottles with a capacity of 500 ml and having a hole with a diameter of about 1 cm for preventing dew condensation made in the upper region was used as culture containers. The cultivation was carried out in a culture chamber at 25° C. and 5,000 Lux (12-hour day length) Then, on Jan. 24, 2005, a survey was carried out with regard to the growth conditions of aerial part and underground part and the number of roots. The results are shown in Table 8 (effect of addition of D-psicose on the growth of seedlings of Phalaenopsis orchid).

Structure (SMILES): O=C[C@H](O)[C@H](O)[C@H](O)[C@H](O)CO [D-allose]
- growth when the concentration added to the medium was increased (Bletilla striata): the growth thereof was delayed
- Aerial part weight (Bletilla striata; sugar 0.005% in medium): 0.19 g
- Bulb size (Bletilla striata; sugar 0.005% in medium): 4.5 mm
- Maximum plant length (Bletilla striata; sugar 0.005% in medium): 7.6 cm
- Maximum root length (Bletilla striata; sugar 0.005% in medium): 4.2 cm
- Number of buds (Bletilla striata; sugar 0.005% in medium): 3.4
- Number of leaves (Bletilla striata; sugar 0.005% in medium): 4.2
- Ratio of bulb formation (Bletilla striata; sugar 0.005% in medium): 84%
- Underground part weight (Bletilla striata; sugar 0.005% in medium): 0.10 g
- Aerial part weight (Bletilla striata; sugar 0.02% in medium): 0.19 g
- Bulb size (Bletilla striata; sugar 0.02% in medium): 4.2 mm
- Maximum plant length (Bletilla striata; sugar 0.02% in medium): 7.5 cm
- Maximum root length (Bletilla striata; sugar 0.02% in medium): 4.1 cm
- Number of buds (Bletilla striata; sugar 0.02% in medium): 3.6
- Number of leaves (Bletilla striata; sugar 0.02% in medium): 3.9
- Ratio of bulb formation (Bletilla striata; sugar 0.02% in medium): 85%
- Underground part weight (Bletilla striata; sugar 0.02% in medium): 0.12 g
- Aerial part weight (Bletilla striata; sugar 0.05% in medium): 0.25 g
- Bulb size (Bletilla striata; sugar 0.05% in medium): 4.9 mm
- Maximum plant length (Bletilla striata; sugar 0.05% in medium): 7.7 cm
- Maximum root length (Bletilla striata; sugar 0.05% in medium): 4.2 cm
- Number of buds (Bletilla striata; sugar 0.05% in medium): 2.7
- Number of leaves (Bletilla striata; sugar 0.05% in medium): 4.3
- Ratio of bulb formation (Bletilla striata; sugar 0.05% in medium): 85%
- Underground part weight (Bletilla striata; sugar 0.05% in medium): 0.12 g
- oospore formation [1]: not observed at all
- Terminal bud weight [2]: 7.9 g
- Stem diameter [2]: 23.6 mm
- Number of lateral buds [2]: 38.0
- Plant length [2]: 60.7 cm
- Total weight of lateral buds [2]: 222.5 g

Structure (SMILES): O=C(CO)[C@@H](O)[C@H](O)[C@H](O)CO [D-fructose, reference compound]
- Aerial part weight (Bletilla striata; sugar 0.005% in medium): 0.16 g
- Bulb size (Bletilla striata; sugar 0.005% in medium): 5.2 mm
- Maximum plant length (Bletilla striata; sugar 0.005% in medium): 6.5 cm
- Maximum root length (Bletilla striata; sugar 0.005% in medium): 4.6 cm
- Number of buds (Bletilla striata; sugar 0.005% in medium): 3.7
- Number of leaves (Bletilla striata; sugar 0.005% in medium): 3.5
- Ratio of bulb formation (Bletilla striata; sugar 0.005% in medium): 44%
- Underground part weight (Bletilla striata; sugar 0.005% in medium): 0.15 g
- Aerial part weight (Bletilla striata; sugar 0.02% in medium): 0.19 g
- Bulb size (Bletilla striata; sugar 0.02% in medium): 4.5 mm
- Maximum plant length (Bletilla striata; sugar 0.02% in medium): 6.6 cm
- Maximum root length (Bletilla striata; sugar 0.02% in medium): 5.1 cm
- Number of buds (Bletilla striata; sugar 0.02% in medium): 3.3
- Number of leaves (Bletilla striata; sugar 0.02% in medium): 4.6
- Ratio of bulb formation (Bletilla striata; sugar 0.02% in medium): 67%
- Underground part weight (Bletilla striata; sugar 0.02% in medium): 0.14 g
- Aerial part weight (Bletilla striata; sugar 0.05% in medium): 0.19 g
- Bulb size (Bletilla striata; sugar 0.05% in medium): 4.7 mm
- Maximum plant length (Bletilla striata; sugar 0.05% in medium): 7.3 cm
- Maximum root length (Bletilla striata; sugar 0.05% in medium): 4.1 cm
- Number of buds (Bletilla striata; sugar 0.05% in medium): 3.3
- Number of leaves (Bletilla striata; sugar 0.05% in medium): 4.0
- Ratio of bulb formation (Bletilla striata; sugar 0.05% in medium): 69%
- Underground part weight (Bletilla striata; sugar 0.05% in medium): 0.10 g
- oospore formation [1]: no effect
- Terminal bud weight [2]: 7.4 g
- Stem diameter [2]: 19.9 mm
- Number of lateral buds [2]: 41.3
- Plant length [2]: 55.8 cm
- Total weight of lateral buds [2]: 231.1 g
- Underground part weight (Phalaenopsis orchid): 4.0 g
- Aerial part weight (Phalaenopsis orchid): 5.7 g
- Number of roots (Phalaenopsis orchid): 14.8 roots

Structure (SMILES): O=C[C@H](O)[C@@H](O)[C@H](O)[C@H](O)CO [D-glucose, reference compound]
- Aerial part weight (Bletilla striata; sugar 0.005% in medium): 0.15 g
- Bulb size (Bletilla striata; sugar 0.005% in medium): 5.1 mm
- Maximum plant length (Bletilla striata; sugar 0.005% in medium): 7.3 cm
- Maximum root length (Bletilla striata; sugar 0.005% in medium): 4.9 cm
- Number of buds (Bletilla striata; sugar 0.005% in medium): 3.7
- Number of leaves (Bletilla striata; sugar 0.005% in medium): 4.1
- Ratio of bulb formation (Bletilla striata; sugar 0.005% in medium): 37%
- Underground part weight (Bletilla striata; sugar 0.005% in medium): 0.13 g
- Aerial part weight (Bletilla striata; sugar 0.02% in medium): 0.20 g
- Bulb size (Bletilla striata; sugar 0.02% in medium): 5.7 mm
- Maximum plant length (Bletilla striata; sugar 0.02% in medium): 7.2 cm
- Maximum root length (Bletilla striata; sugar 0.02% in medium): 5.1 cm
- Number of buds (Bletilla striata; sugar 0.02% in medium): 3.4
- Number of leaves (Bletilla striata; sugar 0.02% in medium): 3.9
- Ratio of bulb formation (Bletilla striata; sugar 0.02% in medium): 59%
- Underground part weight (Bletilla striata; sugar 0.02% in medium): 0.18 g
- Aerial part weight (Bletilla striata; sugar 0.05% in medium): 0.18 g
- Bulb size (Bletilla striata; sugar 0.05% in medium): 5.2 mm
- Maximum plant length (Bletilla striata; sugar 0.05% in medium): 6.5 cm
- Maximum root length (Bletilla striata; sugar 0.05% in medium): 6.1 cm
- Number of buds (Bletilla striata; sugar 0.05% in medium): 3.4
- Number of leaves (Bletilla striata; sugar 0.05% in medium): 4.0
- Ratio of bulb formation (Bletilla striata; sugar 0.05% in medium): 45%
- Underground part weight (Bletilla striata; sugar 0.05% in medium): 0.14 g
- oospore formation [1]: no effect
- Terminal bud weight [2]: 5.7 g
- Stem diameter [2]: 20.6 mm
- Number of lateral buds [2]: 32.0
- Plant length [2]: 56.3 cm
- Total weight of lateral buds [2]: 198.1 g
- Underground part weight (Phalaenopsis orchid): 3.7 g
- Aerial part weight (Phalaenopsis orchid): 5.1 g
- Number of roots (Phalaenopsis orchid): 12.3 roots

Structure (SMILES): O=C(CO)[C@H](O)[C@H](O)[C@H](O)CO [D-psicose]
- growth when the concentration added to the medium was increased (Bletilla striata): the growth thereof was delayed
- Aerial part weight (Bletilla striata; sugar 0.005% in medium): 0.24 g
- Bulb size (Bletilla striata; sugar 0.005% in medium): 6.2 mm
- Maximum plant length (Bletilla striata; sugar 0.005% in medium): 9.3 cm
- Maximum root length (Bletilla striata; sugar 0.005% in medium): 4.4 cm
- Number of buds (Bletilla striata; sugar 0.005% in medium): 4.1
- Number of leaves (Bletilla striata; sugar 0.005% in medium): 3.9
- Ratio of bulb formation (Bletilla striata; sugar 0.005% in medium): 45%
- Underground part weight (Bletilla striata; sugar 0.005% in medium): 0.26 g
- Aerial part weight (Bletilla striata; sugar 0.02% in medium): 0.28 g
- Bulb size (Bletilla striata; sugar 0.02% in medium): 5.6 mm
- Maximum plant length (Bletilla striata; sugar 0.02% in medium): 9.9 cm
- Maximum root length (Bletilla striata; sugar 0.02% in medium): 4.8 cm
- Number of buds (Bletilla striata; sugar 0.02% in medium): 3.3
- Number of leaves (Bletilla striata; sugar 0.02% in medium): 3.9
- Ratio of bulb formation (Bletilla striata; sugar 0.02% in medium): 65%
- Underground part weight (Bletilla striata; sugar 0.02% in medium): 0.22 g
- Aerial part weight (Bletilla striata; sugar 0.05% in medium): 0.20 g
- Bulb size (Bletilla striata; sugar 0.05% in medium): 5.1 mm
- Maximum plant length (Bletilla striata; sugar 0.05% in medium): 7.3 cm
- Maximum root length (Bletilla striata; sugar 0.05% in medium): 5.3 cm
- Number of buds (Bletilla striata; sugar 0.05% in medium): 4.0
- Number of leaves (Bletilla striata; sugar 0.05% in medium): 3.9
- Ratio of bulb formation (Bletilla striata; sugar 0.05% in medium): 67%
- Underground part weight (Bletilla striata; sugar 0.05% in medium): 0.13 g
- oospore formation [1]: inhibited
- Terminal bud weight [2]: 8.8 g
- Stem diameter [2]: 26.9 mm
- Number of lateral buds [2]: 43.0
- Plant length [2]: 61.2 cm
- Total weight of lateral buds [2]: 225.0 g
- Underground part weight (Phalaenopsis orchid): 4.1 g
- Aerial part weight (Phalaenopsis orchid): 6.1 g
- Number of roots (Phalaenopsis orchid): 16.0 roots
